Source: patent publication US4436904A, “Cephalosporins” (Kanto Ishi Pharmaceutical Co., Ltd., priority 1981, dated 1984)
≈ marks a conversion by molar mass, not a printed value. Read-outs that look alike come from different tables or passages of the source.

Assays:
Experiment in all cases: Minimum inhibitory concentration (MIC), standard method of the Japanese Chemotherapeutic Association
[1] = test system: Salmonella paratyphi IID 605; details: Salmonella enterica, IID605|PARATYPHI, read-out: Minimum Inhibitory Concentration (MIC)
Shigella sonnei IID 969 = assay type: cell-based; details: IID969, Inoculum size: 10^6 cells/ml
[2] = test system: Klebsiella pneumoniae IID 865; assay type: cell-based; details: IID865, Inoculum size: 10^6 cells/ml, read-out: Minimum Inhibitory Concentration (MIC)
[3] = test system: Enterobacter cloacae IID 977; assay type: cell-based
[4] = test system: Serratia marcenscens IFO 12648; assay type: cell-based
Escherichia coli MEGAWA = assay type: cell-based; details: for MIC: Escherichia coli
[5] = test system: Enterobacter aerogenes IID 5206; assay type: cell-based; details: Klebsiella aerogenes
Proteus vulgaris = assay type: cell-based; details: read-out: Minimum Inhibitory Concentration (MIC)
[6] = test system: Staphylococcus epidermidis ATCC12228; assay type: cell-based; details: ATCC12228, Inoculum size: 10^6 cells/ml, read-out: Minimum Inhibitory Concentration (MIC)
[7] = test system: Salmonella typhimurium IID 1000; assay type: cell-based; details: Salmonella enterica, read-out: Minimum Inhibitory Concentration (MIC)
Shigella boydii IID 627 = assay type: cell-based; details: IID627, Inoculum size: 10^6 cells/ml
[8] = test system: Pseudomonas pudita IID 5121; assay type: cell-based
Escherichia coli N I H J = assay type: cell-based; details: read-out: Minimum Inhibitory Concentration (MIC)
Proteus morganii IID 602 = assay type: cell-based; details: Morganella morganii
[9] = test system: Shigella dysenteriae IID 633; details: IID633, read-out: Minimum Inhibitory Concentration (MIC)
[10] = test system: Pseudomonas aeruginosa IFO 13739; assay type: cell-based
[11] = test system: Pseudomonas aeruginosa IFO 3080; assay type: cell-based
[12] = test system: Staphylococcus aureus 209-P; assay type: cell-based; details: Inoculum size: 10^6 cells/ml, read-out: Minimum Inhibitory Concentration (MIC)
[13] = test system: Salmonella enteritidis IID 604; assay type: cell-based; details: Salmonella enterica, read-out: Minimum Inhibitory Concentration (MIC)
[14] = test system: Staphylococcus aureus TERAJIMA; assay type: cell-based; details: read-out: Minimum Inhibitory Concentration (MIC)
[15] = test system: Bacillus subtilis ATCC 6633; assay type: cell-based
[16] = IID977, Inoculum size: 10^6 cells/ml, weight concentration, read-out: Minimum Inhibitory Concentration (MIC)
[17] = IFO12648, read-out: Minimum Inhibitory Concentration (MIC)
[18] = Inoculum size: 10^6 cells/ml, weight concentration, read-out: Minimum Inhibitory Concentration (MIC)
[19] = IID5206, Inoculum size: 10^6 cells/ml, weight concentration, read-out: Minimum Inhibitory Concentration (MIC)
[20] = Inoculum size: 10^6 cells/ml, weight concentration
[21] = IID5121, Inoculum size: 10^6 cells/ml, weight concentration, read-out: Minimum Inhibitory Concentration (MIC)
[22] = IID602, read-out: Minimum Inhibitory Concentration (MIC)
[23] = IFO13739, Inoculum size: 10^6 cells/ml, weight concentration, read-out: Minimum Inhibitory Concentration (MIC)
[24] = ATCC6633, Inoculum size: 10^6 cells/ml, weight concentration, read-out: Minimum Inhibitory Concentration (MIC)
[25] = Inoculum size: 10^6 cells/ml, potency concentration
[26] = IFO3080, read-out: Minimum Inhibitory Concentration (MIC)

Compound `CC(=O)OCC1=C(C(=O)O)N2C(=O)C(NC(=O)[C@H](NC(=O)N3CCN(N=C4SCCS4)C3=O)c3ccccc3)C2SC1` (single isomer, unassigned) [KI-6203, sodium 7-{D-(-)-α-[(2-oxo-3-(1,3-dithiolan-2-imino)-imidazolidin-1-yl)-carboxamido]-phenylacetamido}-3-acetoxymethyl-3-cephem-4-carboxylate] has an MIC [1] of 6.25 µg/mL, an MIC (Shigella sonnei IID 969; weight concentration) of 1.56 µg/mL and an MIC ([2]; weight concentration) of 0.39 µg/mL. For the same compound, the MIC [3, 16] was 12.5 µg/mL, the MIC [4, 17] was 6.25 µg/mL and the MIC (Escherichia coli MEGAWA; [18]) was 25 µg/mL. The MIC [5, 19] was 12.5 µg/mL, the MIC (Proteus vulgaris) was 6.25 µg/mL and the MIC ([6]; weight concentration) was 0.39 µg/mL. The MIC [7, 20] was 3.13 µg/mL, the MIC (Shigella boydii IID 627; weight concentration) was 1.56 µg/mL and the MIC [8, 21] was 50 µg/mL. For the same compound, the MIC (Escherichia coli N I H J; [20]) was under 0.1 µg/mL, the MIC (Proteus morganii IID 602; [22]) was 6.25 µg/mL and the MIC [9] was 0.78 µg/mL. The MIC [10, 23] was 12.5 µg/mL, the MIC ([11]; IFO3080, Inoculum size: 10^6 cells/ml, weight concentration, read-out: Minimum Inhibitory Concentration (MIC)) was 3.13 µg/mL and the MIC ([12]; weight concentration) was 0.78 µg/mL. The MIC [13] was 6.25 µg/mL, the MIC [14] was 1.56 µg/mL and the MIC [15, 24] was 0.78 µg/mL.

`CC1=C(C(=O)O)N2C(=O)[C@@H](NC(=O)[C@H](N)c3ccccc3)[C@H]2SC1` [CEX, cephalexin, reference compound] was tested, and the MIC [1] was 12.5 µg/mL (≈ 36 µM), the MIC (Shigella sonnei IID 969; potency concentration) was 6.25 µg/mL (≈ 18 µM) and the MIC ([3]; IID977, read-out: Minimum Inhibitory Concentration (MIC)) was over 100 µg/mL. The MIC [4, 17] was over 100 µg/mL, the MIC (Escherichia coli MEGAWA; read-out: Minimum Inhibitory Concentration (MIC), Inoculum size: 10^6 cells/ml, potency concentration) was over 100 µg/mL and the “Minimum Inhibitory Concentration (MIC)” value (Escherichia coli MEGAWA; [25]) was under 100 µg/mL. For the same compound, the MIC ([5]; IID5206, read-out: Minimum Inhibitory Concentration (MIC)) was over 100 µg/mL, the MIC (Proteus vulgaris) was 12.5 µg/mL (≈ 36 µM) and the MIC [7] was 3.13 µg/mL (≈ 9.01 µM). The MIC (Shigella boydii IID 627; potency concentration) was 3.13 µg/mL (≈ 9.01 µM), the MIC ([8]; IID5121, read-out: Minimum Inhibitory Concentration (MIC)) was over 100 µg/mL and the MIC (Escherichia coli N I H J) was 3.13 µg/mL (≈ 9.01 µM). For the same compound, the MIC (Proteus morganii IID 602; [22]) was over 100 µg/mL, the MIC [9] was 3.13 µg/mL (≈ 9.01 µM) and the MIC ([10]; IFO13739, read-out: Minimum Inhibitory Concentration (MIC)) was over 100 µg/mL. The MIC [11, 26] was over 100 µg/mL, the MIC [13] was 6.25 µg/mL (≈ 18 µM) and the MIC ([15]; ATCC6633, read-out: Minimum Inhibitory Concentration (MIC)) was 0.78 µg/mL (≈ 2.25 µM).

With `Cc1nnc(SCC2=C(C(=O)O)N3C(=O)C(NC(=O)[C@H](NC(=O)N4CCN(N=C5SCCS5)C4=O)c4ccccc4)C3SC2)s1` (single isomer, unassigned) [TO-180, 7-{D-(-)-α-[(2-oxo-3-(1,3-dithiolan-2-imino)-imidazolidin-1-yl)-carboxamido]-phenylacetoamide}-3-[5-methyl-(1,3,4-thiadiazol-2-yl)-thiomethyl]-3-cephem-4-carboxylic acid] the MIC [1] was 1.56 µg/mL (≈ 2.21 µM), the MIC (Shigella sonnei IID 969; weight concentration) was 0.39 µg/mL (≈ 0.552 µM) and the MIC ([2]; weight concentration) was 0.39 µg/mL (≈ 0.552 µM). It also gave an MIC [3, 16] of 3.13 µg/mL (≈ 4.43 µM), an MIC [4, 17] of 1.56 µg/mL (≈ 2.21 µM) and an MIC (Escherichia coli MEGAWA; [18]) of 6.25 µg/mL (≈ 8.84 µM). For the same compound, the MIC [5, 19] was 3.13 µg/mL (≈ 4.43 µM), the MIC (Proteus vulgaris) was 1.56 µg/mL (≈ 2.21 µM) and the MIC ([6]; weight concentration) was 0.39 µg/mL (≈ 0.552 µM). For the same compound, the MIC [7] was 1.56 µg/mL (≈ 2.21 µM), the MIC (Shigella boydii IID 627; weight concentration) was 0.39 µg/mL (≈ 0.552 µM) and the MIC [8, 21] was 25 µg/mL (≈ 35.4 µM). It also gave an MIC (Escherichia coli N I H J; [20]) of under 0.1 µg/mL, an MIC (Proteus morganii IID 602; [22]) of 1.56 µg/mL (≈ 2.21 µM) and an MIC [9] of 0.39 µg/mL (≈ 0.552 µM). For the same compound, the MIC [10, 23] was 6.25 µg/mL (≈ 8.84 µM), the MIC [11, 26] was 1.56 µg/mL (≈ 2.21 µM) and the MIC ([12]; weight concentration) was 0.39 µg/mL (≈ 0.552 µM). For the same compound, the MIC [13] was 1.56 µg/mL (≈ 2.21 µM), the MIC [14, 20] was 0.39 µg/mL (≈ 0.552 µM) and the MIC [15, 24] was 0.78 µg/mL (≈ 1.1 µM).

With `CN(C)CCn1nnnc1SCC1=C(C(=O)O)N2C(=O)[C@@H](NC(=O)Cc3csc(N)n3)[C@H]2SC1` [CTM, cefotiam, reference compound] the MIC [1] was under 0.1 µg/mL, the MIC (Shigella sonnei IID 969; potency concentration) was under 0.1 µg/mL and the MIC ([2]; potency concentration) was under 0.1 µg/mL. For the same compound, the MIC ([3]; IID977, Inoculum size: 10^6 cells/ml, potency concentration, read-out: Minimum Inhibitory Concentration (MIC)) was 3.13 µg/mL (≈ 5.95 µM), the MIC ([4]; IFO12648, Inoculum size: 10^6 cells/ml, potency concentration, read-out: Minimum Inhibitory Concentration (MIC)) was 25 µg/mL (≈ 47.6 µM) and the MIC (Escherichia coli MEGAWA; Inoculum size: 10^6 cells/ml, potency concentration, read-out: Minimum Inhibitory Concentration (MIC)) was 6.25 µg/mL (≈ 11.9 µM). It also gave an MIC ([5]; IID5206, Inoculum size: 10^6 cells/ml, potency concentration, read-out: Minimum Inhibitory Concentration (MIC)) of 1.56 µg/mL (≈ 2.97 µM), an MIC (Proteus vulgaris; [25]) of 0.39 µg/mL (≈ 0.742 µM) and an MIC ([6]; potency concentration) of 0.39 µg/mL (≈ 0.742 µM). The MIC [7, 25] was under 0.1 µg/mL, the MIC (Shigella boydii IID 627; potency concentration) was under 0.1 µg/mL and the MIC ([8]; IID5121, Inoculum size: 10^6 cells/ml, potency concentration, read-out: Minimum Inhibitory Concentration (MIC)) was over 100 µg/mL. The MIC (Escherichia coli N I H J; [25]) was under 0.1 µg/mL, the MIC (Proteus morganii IID 602; IID602, Inoculum size: 10^6 cells/ml, potency concentration, read-out: Minimum Inhibitory Concentration (MIC)) was 0.39 µg/mL (≈ 0.742 µM) and the MIC [9] was under 0.1 µg/mL. It also gave an MIC ([10]; IFO13739, Inoculum size: 10^6 cells/ml, potency concentration, read-out: Minimum Inhibitory Concentration (MIC)) of over 100 µg/mL, an MIC ([11]; IFO3080, Inoculum size: 10^6 cells/ml, potency concentration, read-out: Minimum Inhibitory Concentration (MIC)) of over 100 µg/mL and an MIC ([12]; potency concentration) of 0.39 µg/mL (≈ 0.742 µM). It also gave an MIC [13, 25] of 0.2 µg/mL (≈ 0.38 µM), an MIC [14, 25] of 0.78 µg/mL (≈ 1.48 µM) and an MIC ([15]; ATCC6633, Inoculum size: 10^6 cells/ml, potency concentration, read-out: Minimum Inhibitory Concentration (MIC)) of 0.39 µg/mL (≈ 0.742 µM).
